This note sets out measurements from ChEMBL document CHEMBL1201862, “PubChem BioAssay data set” (2004).

Experiment [1] has as its target Voltage-dependent T-type calcium channel subunit alpha-1H (Homo sapiens, UniProt O95180). Type of experiment: functional.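 Further: channel activity triggered by adding a high calcium stimulation buffer.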
The target in experiment [2] is Prothrombin (Homo sapiens, UniProt P00734). Description: Thrombin 1536 HTS Dose Response Confirmation. [Related pubchem assays: 1046 (Thrombin 1536 HTS; hits were confirmed in this assay)]. It is filed as functional.
Experiment [3] deals with T1, Ubiquitin-conjugating enzyme E2 N (Homo sapiens, UniProt P61088).
T1 sequence (P61088 whole entry): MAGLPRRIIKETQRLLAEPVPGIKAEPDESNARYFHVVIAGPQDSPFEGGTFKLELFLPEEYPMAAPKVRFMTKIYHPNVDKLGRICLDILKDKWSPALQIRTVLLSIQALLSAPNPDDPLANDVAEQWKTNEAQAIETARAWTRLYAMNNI
It is filed as functional.

In experiment [4] the target is T1, Ubiquitin-conjugating enzyme E2 N. Type of experiment: functional. This is another data set of the same source.
Experiment [5] concerns the target T2, Bcl-2-related protein A1 (Mus musculus, UniProt Q07440).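 Further: confirmatory dose–response counterscreen on Bfl-1, used to check hits from a UBC13 polyubiquitin inhibitor campaign.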
T2 sequence (Q07440 whole entry): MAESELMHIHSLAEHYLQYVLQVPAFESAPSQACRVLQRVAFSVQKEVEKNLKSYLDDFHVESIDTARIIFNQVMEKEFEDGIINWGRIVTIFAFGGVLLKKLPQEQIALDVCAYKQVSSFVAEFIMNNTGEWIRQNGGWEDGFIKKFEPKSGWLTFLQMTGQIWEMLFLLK
It is filed as functional.

Experiment [6] can be described thus: viability loss in THP-1 monocytes – THP-1 cells, cytotoxicity control for Vif-APOBEC3G degradation inhibitor project, dose response (AID 1117359). It is filed as functional. Conditions: THP-1.
The nature of experiment [7]: viability of HCT116 lacking mutant beta-catenin – cell-based, human colon tumor, dose response (AID 1045).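 Further: HCT116 colon tumor cells with beta catenin knocked out; cells exposed to compound for 60 hours.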 It is filed as functional.
The nature of experiment [8]: viability of PTEN-deleted HCT116 cells – cell-based, HCT116 PTEN knockout, dose response (AID 1047).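 Further: HCT116 colon tumor cells with PTEN knocked out; cells exposed to compound for 60 hours before readout; potency for loss of cell viability measured by luminescence.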 It is filed as functional.
Experiment [9] addresses Cytochrome P450 2D6 (Homo sapiens, UniProt P10635).
Experiment [10] is described as follows: Luminescence Cell-Based Dose Retest to Confirm Inhibitors of Cancer Stem Cells. [Related pubchem assays (depositor defined):AID2717, AID2721]. It is filed as functional. The settings on record: Homo sapiens.
For experiment [11], the target named is T3, Replicative DNA helicase DnaB (Mycobacterium tuberculosis, UniProt P9WMR3).
T3 sequence (P9WMR3 whole entry): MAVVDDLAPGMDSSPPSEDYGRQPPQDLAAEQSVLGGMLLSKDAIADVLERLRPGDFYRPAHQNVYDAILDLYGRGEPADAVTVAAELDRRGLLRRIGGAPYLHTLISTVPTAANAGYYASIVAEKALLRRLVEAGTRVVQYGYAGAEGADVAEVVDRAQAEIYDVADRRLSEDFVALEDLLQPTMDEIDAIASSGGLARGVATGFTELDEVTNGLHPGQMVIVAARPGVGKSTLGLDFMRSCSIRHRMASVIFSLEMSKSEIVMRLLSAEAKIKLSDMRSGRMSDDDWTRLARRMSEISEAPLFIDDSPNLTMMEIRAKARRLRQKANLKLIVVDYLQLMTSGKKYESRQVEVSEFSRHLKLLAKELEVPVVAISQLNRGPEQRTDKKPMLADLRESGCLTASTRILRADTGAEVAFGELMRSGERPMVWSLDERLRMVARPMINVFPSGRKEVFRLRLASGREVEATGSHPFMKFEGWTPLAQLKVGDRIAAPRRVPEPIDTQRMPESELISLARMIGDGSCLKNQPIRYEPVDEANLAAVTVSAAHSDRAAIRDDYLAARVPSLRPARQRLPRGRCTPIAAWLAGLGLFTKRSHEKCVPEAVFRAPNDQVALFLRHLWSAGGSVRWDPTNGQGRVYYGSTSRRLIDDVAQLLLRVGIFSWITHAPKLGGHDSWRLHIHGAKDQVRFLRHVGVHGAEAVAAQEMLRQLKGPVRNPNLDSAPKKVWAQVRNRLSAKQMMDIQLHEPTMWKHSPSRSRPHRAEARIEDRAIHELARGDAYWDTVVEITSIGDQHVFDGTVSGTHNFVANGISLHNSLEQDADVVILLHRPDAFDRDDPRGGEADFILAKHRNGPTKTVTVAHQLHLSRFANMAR
Briefly: DnaB intein splicing inhibitors, dose response, biochemical, cell-free fluorescence (AID 449749). It is filed as functional.

The target of experiment [12] is T4, Cytochrome P450 1A2 (Homo sapiens, UniProt P05177).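 Further: PubChem cytochrome P450 panel assay, CYP1A2 panel member.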
T4 sequence (P05177 whole entry): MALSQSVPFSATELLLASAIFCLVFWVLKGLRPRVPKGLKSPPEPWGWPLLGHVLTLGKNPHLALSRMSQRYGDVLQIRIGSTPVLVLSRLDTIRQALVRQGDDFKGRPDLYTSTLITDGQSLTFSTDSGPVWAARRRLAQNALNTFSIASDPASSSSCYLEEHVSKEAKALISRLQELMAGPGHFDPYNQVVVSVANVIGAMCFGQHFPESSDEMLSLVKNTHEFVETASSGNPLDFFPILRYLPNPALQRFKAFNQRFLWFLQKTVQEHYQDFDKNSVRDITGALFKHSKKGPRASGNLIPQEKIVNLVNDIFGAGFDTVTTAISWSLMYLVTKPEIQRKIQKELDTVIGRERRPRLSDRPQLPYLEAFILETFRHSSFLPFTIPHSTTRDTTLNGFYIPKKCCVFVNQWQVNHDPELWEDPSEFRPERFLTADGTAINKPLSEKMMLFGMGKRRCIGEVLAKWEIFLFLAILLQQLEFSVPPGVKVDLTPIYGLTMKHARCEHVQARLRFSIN

Experiment [13] deals with T5, Protein RecA (Mycobacterium tuberculosis, UniProt P9WHJ3).
T5 sequence (P9WHJ3 whole entry): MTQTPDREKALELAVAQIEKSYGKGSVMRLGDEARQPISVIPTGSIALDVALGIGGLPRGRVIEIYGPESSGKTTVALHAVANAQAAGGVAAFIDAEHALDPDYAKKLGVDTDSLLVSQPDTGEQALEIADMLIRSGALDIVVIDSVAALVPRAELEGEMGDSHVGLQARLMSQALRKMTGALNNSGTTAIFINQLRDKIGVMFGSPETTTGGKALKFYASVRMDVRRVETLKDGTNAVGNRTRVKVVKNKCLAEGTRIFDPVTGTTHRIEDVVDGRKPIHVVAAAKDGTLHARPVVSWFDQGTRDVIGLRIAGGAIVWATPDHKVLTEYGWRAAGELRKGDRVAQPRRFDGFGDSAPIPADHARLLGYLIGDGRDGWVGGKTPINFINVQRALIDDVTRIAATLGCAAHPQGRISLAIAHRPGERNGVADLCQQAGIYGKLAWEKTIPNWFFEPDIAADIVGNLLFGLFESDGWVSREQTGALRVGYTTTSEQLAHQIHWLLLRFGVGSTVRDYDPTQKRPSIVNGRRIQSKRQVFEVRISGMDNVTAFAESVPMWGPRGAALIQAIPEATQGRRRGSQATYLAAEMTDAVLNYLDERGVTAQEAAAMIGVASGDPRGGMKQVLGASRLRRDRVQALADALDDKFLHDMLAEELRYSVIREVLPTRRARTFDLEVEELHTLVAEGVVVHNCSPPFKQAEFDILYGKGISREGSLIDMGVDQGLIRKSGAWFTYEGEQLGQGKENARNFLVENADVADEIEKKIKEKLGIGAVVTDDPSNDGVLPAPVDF
Description: Fluorescence Cell-Free Homogeneous Dose Retest to Identify Inhibitors of RecA-Intein Splicing Activity. [Related pubchem assays (depositor defined):AID2097, AID2223, AID489010, AID492950]. Type of experiment: functional.

Experiment [14] is described as follows: NIH3T3 cell viability loss – ATP luminescence, mouse fibroblasts, counter-screen, dose response (AID 2010).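 Further: cells exposed to compound for about 90 hours before reading.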 Type of experiment: functional, cell-based. On the technique in general: The purpose of a counterscreen is to sort out artefacts and off-target activity.
The nature of experiment [15]: Trypanosoma cruzi growth suppression in host cells – NIH3T3 host cells, beta-gal luminescence, confirmation (AID 2044).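 Further: intracellular parasites grown in NIH/3T3 mouse fibroblasts as host cells; luminescent beta-galactosidase reporter signal from transgenic T. cruzi replicating inside host cells; inhibitors lower the luminescence signal.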 It is filed as functional, cell-based.
For experiment [16], the target named is T6, Heat shock factor protein 1 (Mus musculus, UniProt P38532).
T6 sequence (P38532 whole entry): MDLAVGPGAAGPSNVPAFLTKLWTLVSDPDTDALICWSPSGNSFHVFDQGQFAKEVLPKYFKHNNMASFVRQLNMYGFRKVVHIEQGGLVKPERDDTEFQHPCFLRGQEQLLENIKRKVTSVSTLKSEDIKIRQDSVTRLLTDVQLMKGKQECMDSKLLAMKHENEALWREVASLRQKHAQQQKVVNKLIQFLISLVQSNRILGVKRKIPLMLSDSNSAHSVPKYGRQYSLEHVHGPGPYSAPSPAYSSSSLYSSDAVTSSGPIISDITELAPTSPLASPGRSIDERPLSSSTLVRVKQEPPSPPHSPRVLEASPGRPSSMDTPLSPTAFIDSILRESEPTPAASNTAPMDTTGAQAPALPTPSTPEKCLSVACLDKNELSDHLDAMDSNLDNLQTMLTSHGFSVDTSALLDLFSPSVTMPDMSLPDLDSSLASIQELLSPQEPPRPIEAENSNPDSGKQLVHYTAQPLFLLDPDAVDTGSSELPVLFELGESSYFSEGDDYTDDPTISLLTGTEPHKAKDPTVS
Briefly: enhancement of HSF1-driven luciferase signal – cell-based, NIH3T3, luminescence, dose retest, confirmation (AID 435004).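 Further: stress induced by proteasome inhibitor MG132 added 30 min after compound; luciferase reporter driven by HSF1 response element in NIH3T3 cells; actives raise luminescence as potentiators of the MG132 stress response.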 Type of experiment: functional.

Experiment [17] concerns Streptococcus sp. 'group A'. Briefly: Streptococcus pyogenes SK(-)GAS viability under kanamycin – luminescence, BacTiterGlo, confirmation, counter-screen for streptokinase expression inhibitor project, dose response (AID 1900). Type of experiment: functional, organism-based.
Experiment [18] relates to INS1. Briefly: INS-1E survival protection against cytokine death – cell-based, luminescence, retest, dose response (AID 449756).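 Further: cell death triggered by IL-1 beta plus TNF-alpha plus IFN-gamma mixture; protective hits raise ATP signal compared with cytokine alone wells.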 It is filed as functional. The settings on record: Rattus norvegicus.
Experiment [19] concerns Streptococcus. Briefly: GAS UMAA2166 growth inhibition – luminescence, BacTiterGlo, counter-screen for streptokinase expression inhibitor project, dose response (AID 1915).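 Further: potency for reduction of bacterial viability or growth.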 Type of experiment: functional, organism-based.

Active and inactive are the calls of the source. Some results are limits rather than exact numbers.

Sequence of Voltage-dependent T-type calcium channel subunit alpha-1H (O95180 whole entry): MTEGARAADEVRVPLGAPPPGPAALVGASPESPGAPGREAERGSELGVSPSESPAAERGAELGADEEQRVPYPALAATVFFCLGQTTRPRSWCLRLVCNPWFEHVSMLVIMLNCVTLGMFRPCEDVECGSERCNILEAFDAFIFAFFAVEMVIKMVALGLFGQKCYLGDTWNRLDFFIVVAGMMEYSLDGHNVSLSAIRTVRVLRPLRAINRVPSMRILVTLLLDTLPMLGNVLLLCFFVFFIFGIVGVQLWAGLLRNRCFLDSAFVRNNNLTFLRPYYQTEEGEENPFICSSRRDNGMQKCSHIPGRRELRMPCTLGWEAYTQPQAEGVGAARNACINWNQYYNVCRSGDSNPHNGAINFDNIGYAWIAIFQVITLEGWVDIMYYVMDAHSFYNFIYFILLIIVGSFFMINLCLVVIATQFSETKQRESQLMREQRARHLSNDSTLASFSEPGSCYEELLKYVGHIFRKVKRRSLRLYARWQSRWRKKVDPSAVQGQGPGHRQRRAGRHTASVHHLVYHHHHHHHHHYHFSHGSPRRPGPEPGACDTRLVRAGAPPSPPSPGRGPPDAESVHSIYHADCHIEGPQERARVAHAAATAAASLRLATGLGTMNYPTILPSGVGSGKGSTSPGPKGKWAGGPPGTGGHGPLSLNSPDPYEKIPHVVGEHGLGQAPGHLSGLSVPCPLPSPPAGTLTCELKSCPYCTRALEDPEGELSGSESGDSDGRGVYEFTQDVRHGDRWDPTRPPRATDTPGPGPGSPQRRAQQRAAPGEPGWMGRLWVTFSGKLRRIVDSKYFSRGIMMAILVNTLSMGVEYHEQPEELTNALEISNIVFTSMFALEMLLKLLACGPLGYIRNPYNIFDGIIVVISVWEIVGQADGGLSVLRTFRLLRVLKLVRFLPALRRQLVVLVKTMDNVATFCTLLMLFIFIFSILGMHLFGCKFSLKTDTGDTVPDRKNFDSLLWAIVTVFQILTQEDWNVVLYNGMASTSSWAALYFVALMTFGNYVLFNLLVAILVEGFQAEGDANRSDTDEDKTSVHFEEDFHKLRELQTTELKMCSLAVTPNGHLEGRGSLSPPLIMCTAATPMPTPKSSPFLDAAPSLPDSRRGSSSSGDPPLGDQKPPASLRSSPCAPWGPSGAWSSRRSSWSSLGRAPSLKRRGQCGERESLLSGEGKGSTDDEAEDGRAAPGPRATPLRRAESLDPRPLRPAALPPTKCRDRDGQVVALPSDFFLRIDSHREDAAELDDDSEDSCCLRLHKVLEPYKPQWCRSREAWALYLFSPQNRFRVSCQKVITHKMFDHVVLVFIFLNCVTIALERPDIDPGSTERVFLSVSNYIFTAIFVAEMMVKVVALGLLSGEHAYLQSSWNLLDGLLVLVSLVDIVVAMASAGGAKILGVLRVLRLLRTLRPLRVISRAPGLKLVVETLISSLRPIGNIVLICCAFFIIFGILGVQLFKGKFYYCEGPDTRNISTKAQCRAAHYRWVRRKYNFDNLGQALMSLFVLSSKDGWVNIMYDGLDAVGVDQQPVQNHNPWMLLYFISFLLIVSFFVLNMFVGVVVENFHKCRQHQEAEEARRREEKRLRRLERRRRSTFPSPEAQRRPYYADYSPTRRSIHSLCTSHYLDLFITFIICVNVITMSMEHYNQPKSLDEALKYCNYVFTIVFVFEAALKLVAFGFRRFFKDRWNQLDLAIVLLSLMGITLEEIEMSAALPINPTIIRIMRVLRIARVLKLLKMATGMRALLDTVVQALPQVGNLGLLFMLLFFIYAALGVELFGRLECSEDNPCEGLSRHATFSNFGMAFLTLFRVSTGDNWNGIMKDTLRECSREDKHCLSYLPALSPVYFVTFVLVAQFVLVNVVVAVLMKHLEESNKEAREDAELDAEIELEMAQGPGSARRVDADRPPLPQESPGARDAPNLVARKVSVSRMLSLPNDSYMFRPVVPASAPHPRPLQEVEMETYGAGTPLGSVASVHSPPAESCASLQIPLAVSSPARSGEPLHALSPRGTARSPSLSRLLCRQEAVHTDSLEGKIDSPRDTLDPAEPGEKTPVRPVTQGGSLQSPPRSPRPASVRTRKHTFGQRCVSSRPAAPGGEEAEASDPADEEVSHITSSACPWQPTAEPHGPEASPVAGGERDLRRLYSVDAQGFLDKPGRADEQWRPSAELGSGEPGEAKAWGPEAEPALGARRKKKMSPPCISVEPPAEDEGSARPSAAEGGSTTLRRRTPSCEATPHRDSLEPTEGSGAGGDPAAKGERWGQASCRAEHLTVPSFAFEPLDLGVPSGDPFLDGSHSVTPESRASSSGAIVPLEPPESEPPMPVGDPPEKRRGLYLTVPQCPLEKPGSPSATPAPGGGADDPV
Sequence of Cytochrome P450 2D6 (P10635 whole entry): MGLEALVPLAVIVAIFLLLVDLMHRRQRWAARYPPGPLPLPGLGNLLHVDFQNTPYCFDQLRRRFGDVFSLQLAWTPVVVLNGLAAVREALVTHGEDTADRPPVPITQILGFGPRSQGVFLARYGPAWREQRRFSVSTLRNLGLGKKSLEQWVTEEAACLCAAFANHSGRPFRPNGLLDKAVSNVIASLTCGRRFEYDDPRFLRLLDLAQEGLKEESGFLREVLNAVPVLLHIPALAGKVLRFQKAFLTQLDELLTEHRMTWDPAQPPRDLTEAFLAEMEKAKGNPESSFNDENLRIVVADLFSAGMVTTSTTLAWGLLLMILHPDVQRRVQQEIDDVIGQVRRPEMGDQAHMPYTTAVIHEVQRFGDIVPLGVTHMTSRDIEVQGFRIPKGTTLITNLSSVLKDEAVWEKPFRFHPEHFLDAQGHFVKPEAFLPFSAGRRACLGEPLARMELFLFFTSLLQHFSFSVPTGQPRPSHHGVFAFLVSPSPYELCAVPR

`Cc1ccccc1NC(=O)c1ccc(CN2CCC(Cc3ccccc3)CC2)cc1`: in [1], the EC50 (in general, the midpoint of the concentration-response curve) was 0.134 µM (active).

On to `O=C(O)C1CCN(c2ccc(Cl)nn2)CC1`, for which, in [2], the IC50 (as a rule, the concentration at which inhibition is half-maximal) was > 50 µM (not active).

As to `CN(CCNC(=O)C1CCN(c2ncnc3c2nc2n3CCCCC2)CC1)Cc1ccccc1`, the IC50 is 3.44 µM (active) in experiment [3], 2.98 µM (active) in [4] and > 20 µM (inactive) in [5].

In the case of `COc1ccccc1NC(=O)CSc1nnc(-c2ccoc2C)n1CCc1ccccc1`, the IC50 was 9.91 µM (active) in experiment [3], 8.82 µM (active) in experiment [4] and > 20 µM (inactive) in experiment [5].

As for `CCOC(=O)C(C)Sc1cc(CS(=O)(=O)c2ccccc2)nc(-c2ccccc2)n1` (centres undefined), the EC50 in experiment [1] is 8.17 µM (active).

Consider `COc1ccc(-c2nc(C#N)c(NCc3ccccc3Cl)o2)cc1OC`, for which the CC50 (commonly the concentration that lowers cell viability or growth by half) in [6] is > 40 µM (active). Also, the EC50 in experiment [7] was 29.1 µM (active); in experiment [8] it was 25.1 µM (active).

For `Nc1nc2ccccc2n1C(=O)c1ccco1`, the IC50 in experiment [2] was > 50 µM (not active).

Regarding `O=C(Nc1nc(-c2cccs2)cs1)c1ccc(S(=O)(=O)N2CCCCC2)cc1`, the EC50 in experiment [1] was 3.4 µM (active).

For the compound `CCCOc1ccc(C(=O)Nn2c(C)nc3ccccc3c2=O)cc1`, the IC50 in experiment [3] is 1.54 µM (active); in experiment [4] it was 1.32 µM (active); in experiment [5] it was > 20 µM (inactive).

With `O=C(Nc1ccc(F)cc1F)c1ccc(-n2cncn2)nc1`, in experiment [2], the IC50 is > 50 µM (not active).

In the case of `CC(=O)Oc1ccc2ccccc2c1C(NC(=O)Cc1ccccc1)c1ccc(Cl)cc1` (centres undefined), the AC50 (in general, the concentration giving half of the maximal activity seen) in experiment [9] was 11.2 µM (inconclusive); in experiment [10], 3.12 µM (active); in [11] it was 3.27 µM (active); in [12], 6.31 µM (inconclusive). Further, the results for the EC50 in [7], in [13] and in experiment [8] were 21.1 µM (active), 31.6 µM (active) and 18.6 µM (active), respectively.

Turning to `Cc1ccc2[nH]c(SCCCCOc3ccccc3)nc2c1`, the EC50 in experiment [1] is 2.25 µM (active).

Regarding `CCOC(=O)c1c(NC(=O)COc2ccccc2C#N)sc2c1CC(C)(C)NC2(C)C`, the IC50 in experiment [3] was 5.94 µM (active); in [4], 4.91 µM (active); in experiment [5] it was > 20 µM (inactive).

As for `COc1ccccc1NC(=O)c1sc2ncn(Cc3ccc(C)cc3)c(=O)c2c1C`, the IC50 in experiment [2] was > 50 µM (not active).

Regarding `Cn1c(CNc2cccc(Cl)c2)nnc1SCC(=O)OC1CCCCC1`, the EC50 in [1] is 2.53 µM (active).

As to `COc1ccc(-c2ccc(CCC(=O)O)n2-c2ccccc2O)cc1`, in [2], the IC50 is 10.5 µM (active).

`CC(C)N=C(S)N=Nc1c(O)[nH]c2ccc(C(C)C)cc12`: the results for the IC50 in [3], in experiment [4] and in experiment [5] were 19.2 µM (active), 3.56 µM (active) and > 20 µM (inactive), respectively. For the same compound, the figures for the EC50 in [14] and in experiment [15] were 11 µM (active) and 2.06 µM (active), respectively.

As for `Cc1cccc(NC(=S)N=Nc2c(O)[nH]c3ccccc23)c1`, the EC50 was 8.45 µM (active) in experiment [16], 4.49 µM (active) in experiment [14] and 1.53 µM (active) in [15]. For the same compound, the IC50 in experiment [3] is 15 µM (active); in experiment [4], 0.594 µM (active); in experiment [5], > 20 µM (inactive).

Regarding `Clc1ccc2c(N/N=C/c3cccc(Br)c3)ccnc2c1`, the EC50 in experiment [17] was 3.24 µM (active); in experiment [19], 4.4 µM (active); in [7], 4.89 µM (active); in experiment [8] it was 4.59 µM (active). In addition, the AC50 is 7.17 µM (active) in experiment [18] and 5.63 µM (active) in experiment [10].
